Source: patent US20260234116A1, “CYTOTOXIC EPOXYKETONE COMPOUNDS, PRECURSORS, COMPOSITIONS, AND METHODS OF USE” (Memorial Sloan-Kettering Cancer Center, priority 2023, published 2026)
Like-named read-outs stand apart in the source and are kept apart here.

Tests used:
[1] = biological target: T1, EpnF (Streptomyces hygroscopicus, UniProt V5RMU9); test: Semiquantitative epoxide capture assay (EpnF-catalyzed epoxyketone formation); type: biochemical; details: 1 μM EpnF; for EpnF-catalyzed conversion to epoxyketone (epoxide capture): 240 μM β-ketoacid substrate (FIG. 2); for EpnF-catalyzed formation of epoxyketone (epoxide capture): 250 μM β-ketoacid substrate, 1 h, positive control 11n (FIG. 1)
Method: Recombinant EpnF was diluted to 1 μM in 180 μL EpnF Buffer in an 1.5 mL Eppendorf tube. The β-ketoacid 11 was added at various concentrations to a total reaction volume of 200 μL. The mixture was incubated in a heated shaker at 37° C. and 225 rpm for 1 h. The reaction mixture (30 μL×3 technical replicates) was transferred to a white, opaque 96-well plate (PerkinElmer, OptiPlate-96). Each plate also contained 30 μL×3 technical replicates of EpnF Buffer as a negative control. To each well, 15 μL of 125 mM nicotinamide in EpnF Buffer was added and mixed by pipetting. The plate was sealed with an adhesive foil cover (VWR Adhesive Foil for Microplates) and heated in an oven at 80° C. for 1 h. The plate was cooled to rt and 25 μL of 15% (v/v) acetophenone in EtOH and 25 μL of 1 M potassium hydroxide in EtOH were added to each well, then mixed by pipetting. The plate was cooled on ice for 10 min, then 125 μL formic acid was added to each well. The plate was resealed and heated in an oven at 100° C. for 5 min. The plate was cooled on ice for 5-10 min, then analyzed (λex 370 nm, λem 430 nm) on a fluorescence plate reader (Molecular Devices Spectramax M3).
We adapted a reported epoxide capture assay [Nelis, H. J. C. F.; Sinsheimer, J. E. (1981) A sensitive fluorimetric procedure for the determination of aliphatic epoxides under physiological conditions. Anal. Biochem. 115, 151-157.] to 96-well plate format to detect formation of the epoxyketone products semiquantitatively. Each β-ketoacid substrate 11 was incubated with recombinant, purified EpnF (1 h), then reacted with nicotinamide and acetophenone (1 h) to form a fluorescent 1,6-naphthyridinone 24. The fluorescent signals were normalized to that resulting from the known substrate β-ketoacid 11n as a positive control [Zabala, D.; Cartwright, J. W.; Roberts, D. M.; Law, B. J. C.; Song, L.; Samborskyy, M.; Leadlay, P. F.; Micklefield, J.; Challis, G. L. (2016) A flavin-dependent decarboxylase-dehydrogenase-monooxygenase assembles the warhead of α,β-epoxyketone proteasome inhibitors. J. Am. Chem. Soc. 138, 4342-4345.].

[2] = biological target: T1, EpnF; test: Enzyme kinetic analysis by SPE-MS/MS assay; type: biochemical; details: quantitative SPE-MS/MS assay
Method: SPE-MS/MS analyses were carried out on an Agilent RapidFire 365 High-Throughput Mass Spectrometry System with 6495 triple quadrupole mass spectrometer. Determination of initial velocity: EpnF stock at 100 μM was diluted 10-fold in EpnF Buffer to a 10 μM working solution, which was further diluted to 8 concentrations (10-0.005 μM) in EpnF Buffer (intermediate volume 1350 μL, concentrations calculated for 1500 μL theoretical final volume corresponding to addition of substrate solutions below). The 8 EpnF enzyme dilutions were aliquoted (90 μL) into the corresponding 8 tubes of PCR tube strips (12 strips, one per time point; Thermo Scientific, AB-2000). The β-ketoacid 11 (20 mM in EtOH) was diluted to 10 μM in EpnF Buffer, then 10 μL of this solution was added to each of the tubes (1 μM final concentration, 100 μL final volume) to initiate the reaction. Samples were incubated in a heated shaker at 37° C. and 225 rpm for up to 120 min, and one tube strip was removed at each time point. Each tube was quenched with 5% formic acid in EpnF Buffer (100 μL), pipetted vigorously, and flash frozen on dry ice. Samples were thawed then centrifuged to precipitate protein and transferred to a conical-bottom 96-well plate (Thermo Scientific/Nunc, 249944) for SPE-MS/MS analysis. Measurement of Km and Vmax: Using the data from the initial velocity experiments above, an appropriate EpnF enzyme concentration was selected for each β-ketoacid 11 at which the rate of conversion to the epoxyketone 12 remained linear at 10 min (0.50 μM for 11n and 0.05 μM for all other substrates). Each substrate (20 mM in EtOH) was diluted to 1 mM in EpnF Buffer, then diluted to 8 concentrations (100-0.5 μM) in EpnF Buffer (intermediate volume 1350 μL, concentrations calculated for 1500 μL theoretical volume corresponding to addition of enzyme solutions below). The 8 substrate dilutions were aliquoted (90 μL) into the corresponding 8 tubes of PCR tube strips (12 strips, one per time point; Thermo Scientific, AB-2000). The EpnF enzyme stock solution was diluted in EpnF Buffer to the appropriate concentration for each substrate, then 10 μL of this solution was added to each of the tubes (100 μL final volume) to initiate the reaction. For the 0-min time point, 5% formic acid in EpnF Buffer was added to the β-ketoacid substrate before addition of the enzyme. Samples were incubated in a heated shaker at 37° C. and 225 rpm for up to 10 min, and one tube strip was removed at each time point. Each tube was quenched by addition of 5% formic acid in EpnF Buffer (100 μL), pipetted vigorously, and flash frozen on dry ice. Samples were thawed then centrifuged to precipitate proteins and the supernatants were transferred to a conical-bottom 96-well plate (Thermo Scientific/Nunc, 249944) for SPE-MS/MS analysis. Km and Vmax values for each substrate were calculated by Michaelis-Menten analysis. To obtain a quantitative assessment of EpnF substrate specificity, we developed a kinetic assay (10 min) using SPE-MS/MS (solid-phase extraction/triple quadrupole mass spectrometry; Agilent RapidFire 365 with 6495 MS) to enable direct detection of both substrates and products.

[3] = system: EL4 mouse lymphoma; test: Cytotoxicity of epoxyketones, CellTitre-Glo, 48 h; type: cell-based; details: EL4, 48 h
Method: (§1) Cytotoxicity Assays. Cancer cell lines (ATCC: U266 multiple myeloma, EL4 mouse lymphoma, Raji B-cell lymphoma) were cultured in Roswell Park Memorial Institute (RPMI) medium supplemented with 10% fetal bovine serum (FBS), 2 mM L-glutamine, 100 IU/mL penicillin, 100 μg/mL nonessential amino acids, 1 mM sodium pyruvate, and 57 μM β-mercaptoethanol. Cells (90 μL) were seeded in the inner 60 wells of an opaque-wall, clear flat-bottom 96-well plate (Corning/Falcon, 351177) at 20,000 cells per well. The outer perimeter wells were filled with 200 μL PBS to reduce evaporation in the central 60 wells. Epoxyketones 12 (20 mM in DMSO) were diluted in RPMI media to 1 mM (5% DMSO final concentration). Each epoxyketone was then diluted log-fold into 10 concentrations with 5% DMSO in RPMI. Each epoxyketone solution (10 μL) was added to the cells for a 0.5% DMSO final concentration across all wells and final epoxyketone concentrations of 100-0.005 μM. Negative control wells were treated with 10 μL of 5% DMSO in RPMI. Cells were incubated with compounds for 48 h, then cytotoxicity was measured with the CellTitre-Glo assay (Promega G9241).

[4] = system: Raji B-cell lymphoma; test: Cytotoxicity of epoxyketones, CellTitre-Glo, 48 h; type: cell-based; details: Homo sapiens
Method: as §1

[5] = system: U266 multiple myeloma; test: Cytotoxicity of epoxyketones, CellTitre-Glo, 48 h; type: cell-based; details: Homo sapiens, U-266, U266, 48 h
Method: as §1

[6] = Stability of β-ketoacid substrates (decarboxylation, 1H-NMR or SPE-MS/MS); type: physicochemical
Method: To assess rates of decarboxylation under conditions relevant to storage, biochemical assays, and cellular assays, we investigated the stability of eponemycin-based β-ketoacids 11a and 11c under a variety of conditions as shown in below Table C.
For samples stored neat, β-ketoacid 11 (lyophilized powder) was aliquoted into 1.5-2 mg samples in glass vials and placed under Ar. Samples were stored on the bench top (20-25° C.), in at 4° C. refrigerator or in a −20° C. freezer. At each time point, an entire aliquot was dissolved in CD3OD (600 μL) analyzed by ^1H-NMR for decarboxylation to the corresponding isopropyl ketone byproduct 22. The degree of decarboxylation was determined by comparing integrations of two singlet peaks at 1.40 and 1.33 ppm, arising from the α,α-dimethyl groups in the β-ketoacid 11, to two doublet peaks at 1.09 and 1.06 ppm, arising from the isopropyl methyl groups in the decarboxylation product 22. A septuplet corresponding to the methine proton of the isopropyl group was also observed at 2.91 ppm.
For samples stored in PBS, aliquots of β-ketoacid 11 were dissolved in deuterated PBS (600 μL) and incubated in a 37° C. shaking incubator. At each time point, one aliquot was removed and analyzed by ^1H-NMR as above. NMR changes observed in deuterated PBS were similar to those observed in CD3OD above.
For samples stored in RPMI, β-ketoacid 11 (lyophilized powder) was dissolved in EtOH to a working stock concentration of 20 mM. The sample was diluted in RPMI to 100 μM (1000 μL) and incubated at 37° C. At each time point, an aliquot (50 μL) was removed from the master sample, transferred to a 96-well plate, quenched with 4 vol MeOH, centrifuged at 4,000 g to precipitate debris, and immediately analyzed by SPE-MS/MS to quantitate β-ketoacid 11 remaining.

T1 sequence (V5RMU9 entry or part of it): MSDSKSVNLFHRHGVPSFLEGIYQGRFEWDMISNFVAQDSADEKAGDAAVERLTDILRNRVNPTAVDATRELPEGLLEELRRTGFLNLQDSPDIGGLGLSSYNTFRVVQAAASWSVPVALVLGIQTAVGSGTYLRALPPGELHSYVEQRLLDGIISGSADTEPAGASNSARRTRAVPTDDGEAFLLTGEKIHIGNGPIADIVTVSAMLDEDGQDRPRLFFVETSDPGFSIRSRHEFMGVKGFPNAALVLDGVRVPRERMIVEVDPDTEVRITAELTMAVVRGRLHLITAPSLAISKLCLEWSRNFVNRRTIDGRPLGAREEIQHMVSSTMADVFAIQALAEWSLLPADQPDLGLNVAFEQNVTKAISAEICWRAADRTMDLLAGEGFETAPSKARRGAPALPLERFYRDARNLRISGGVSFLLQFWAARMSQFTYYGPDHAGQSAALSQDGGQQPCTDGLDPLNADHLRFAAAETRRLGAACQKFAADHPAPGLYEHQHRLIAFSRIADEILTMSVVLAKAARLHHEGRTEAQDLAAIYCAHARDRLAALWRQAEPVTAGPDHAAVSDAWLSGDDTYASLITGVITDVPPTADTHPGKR

| Structure (SMILES) | EpnF-catalyzed conversion to epoxyketone (epoxide capture) [1] | IC50 ([3]; read-out: IC50) | IC50 ([3]; read-out: log IC50 (converted)) | IC50 ([4]; read-out: IC50) | IC50 ([4]; read-out: log IC50 (converted)) | IC50 ([5]; read-out: IC50) | IC50 ([5]; read-out: log IC50 (converted)) | other results |
| --- | --- | --- | --- | --- | --- | --- | --- | --- |
| CC(C)CCCCC(=O)N[C@H](C(=O)N[C@@H](CC(C)C)C(=O)C(C)(C)C(=O)O)C(C)C [Compound 11k, (4S)-2,2,6-Trimethyl-4-[(2S)-3-methyl-2-(6-methylheptanamido)butanamido]-3-oxoheptanoic acid] | tolerated to a lesser degree | – | – | – | – | – | – | efficiency of EpnF-catalyzed conversion compared to parent substrate 11a (in words) [2]: low conversion |
| CC(C)CCCCC(=O)N[C@H](C(=O)N[C@@H](CC(C)C)C(=O)[C@@]1(C)CO1)[C@@H](C)O [Compound 12l, N-[(1S)-2-Hydroxy-1-{[(2S)-4-methyl-1-[(2R)-2-methyloxiran-2-yl]-1-oxopentan-2-yl]carbamoyl}propyl]-6-methylheptanamide] | – | 3.7 µM | 3.55 µM | 2.1 µM | 2.09 µM | 2.1 µM | 2.14 µM | – |
| CC(C)CCCCC(=O)N[C@@H](CO)C(=O)N[C@@H](CC(C)C)C(=O)C(C)(CO)C(=O)O (single isomer, unassigned) [Compound 11c] | – | – | – | – | – | – | – | half-life ([6]; deuterated PBS, PBS, 37° C.): 15 min; stability / rate of decarboxylation (in words) ([6]; neat at low temperatures, buffer or media at 37° C.): considerably faster; EpnF-catalyzed formation of epoxyketone (epoxide capture) [1]: no epoxide formation was detected |
| CCCC(=O)N[C@@H](CO)C(=O)N[C@@H](CC(C)C)C(=O)[C@@]1(C)CO1 [Compound 12n] | – | 5.7 µM | 5.37 µM | 5.4 µM | 5.37 µM | 4.8 µM | 4.79 µM | – |
| CC(C)C[C@H](NC(=O)[C@H](CO)NC(=O)c1ccccc1)C(=O)[C@@]1(C)CO1 [Compound 12o, (2S)-3-Hydroxy-N-[(2S)-4-methyl-1-[(2R)-2-methyloxiran-2-yl]-1-oxopentan-2-yl]-2-(phenylformamido)propenamide] | – | 7.2 µM | 7.24 µM | 3.6 µM | 3.47 µM | 2.7 µM | 2.69 µM | – |
| CC(C)CCCCC(=O)N[C@@H](C)C(=O)N[C@@H](CC(C)C)C(=O)C(C)(C)C(=O)O [Compound 11j, (4S)-2,2,6-Trimethyl-4-[(2S)-2-(6-methylheptanamido)propanamido]-3-oxoheptanoic acid] | tolerated | – | – | – | – | – | – | – |
| CC(C)CCCCC(=O)N[C@@H](Cc1ccccc1)C(=O)N[C@@H](CC(C)C)C(=O)C(C)(C)C(=O)O [Compound 11m, (4S)-2,2,6-Trimethyl-4-[(2S)-2-(6-methylheptanamido)-3-phenylpropanamido]-3-oxoheptanoic acid] | not accepted | – | – | – | – | – | – | – |
| C=C(C)C[C@H](NC(=O)[C@H](CO)NC(=O)CCCCC(C)C)C(=O)C(C)(CO)C(=O)O (single isomer, unassigned) [Compound 11d] | – | – | – | – | – | – | – | EpnF-catalyzed formation of epoxyketone (epoxide capture) [1]: no epoxide formation was detected |
| CC(C)CCCCC(=O)N[C@@H](CO)C(=O)N[C@@H](CC(C)C)C(=O)C(C)C(=O)O (stereo partly shown) [Compound 11e] | not tolerated | – | – | – | – | – | – | – |
| CC(C)CCCCC(=O)N[C@@H](C)C(=O)N[C@@H](CC(C)C)C(=O)[C@@]1(C)CO1 [Compound 12j, 6-Methyl-N-[(1S)-1-{[(2S)-4-methyl-1-[(2R)-2-methyloxiran-2-yl]-1-oxopentan-2-yl]carbamoyl}ethyl]heptanamide] | – | 3.2 µM | 3.02 µM | 1.9 µM | 1.91 µM | 2.2 µM | 2.19 µM | – |
| CC(C)CCCCC(=O)N[C@@H](CO)C(=O)N[C@@H](C)C(=O)C(C)(C)C(=O)O [Compound 11f, (4S)-4-[(2S)-3-Hydroxy-2-(6-methylheptanamido)propanamido]-2,2-dimethyl-3-oxopentanoic acid] | could not be truncated to alanine | – | – | – | – | – | – | – |
